{"source": "patent US20060069132A1", "about": "“Azolecarboxamide herbicides” (priority 2004, published 2006)", "key": {"[1]": {"tested_on": "wild oat", "experiment": "Test B postemergence herbicide test", "assay_type": "in vivo, Avena fatua", "conditions": "scale 0 (no effect) to 100 (complete control)", "summary_of_the_method": "(§1)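 Treated at 2-leaf (paddy) or 1–4-leaf, 2–18 cm (postemergence); greenhouse 13–15 d; visual score vs control, 0 none to 100 complete control; dash = not tested.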"}, "[2]": {"tested_on": "rice", "experiment": "Test C flooded paddy test", "assay_type": "in vivo, Oryza sativa", "summary_of_the_method": "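Plants were grown to the 1- to 4-leaf stage (2–18 cm) and then treated postemergence, or grown to the 2-leaf stage for the flooded paddy test. They were held in a greenhouse for 12 to 14 days and then scored by eye against controls, where 0 is no effect and 100 is complete control.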"}, "[3]": {"tested_on": "barnyardgrass", "experiment": "Test B pre-/postemergence herbicide test", "assay_type": "in vivo, Echinochloa crus-galli", "conditions": "for Barnyardgrass plant response rating: postemergence", "summary_of_the_method": "(§2)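 Species tested were Echinochloa crus-galli, Ipomoea coccinea, Xanthium strumarium and Oryza sativa, treated both before emergence and at the 1- to 4-leaf stage; rice and barnyardgrass were also tested under flooding at 2 leaves. Greenhouse incubation lasted 13–15 days before visual 0–100 scoring.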"}, "[4]": {"tested_on": "corn", "experiment": "Test B pre-/postemergence herbicide test", "assay_type": "in vivo, Zea mays", "conditions": "for Corn plant response rating: postemergence", "summary_of_the_method": "(§3)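 Evaluation is visual, comparing treated with control plants on a scale where 0 means no effect and 100 means full control. Treatments were preemergence, or postemergence on seedlings 2–18 cm tall, and held 13–15 days in the greenhouse.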"}, "[5]": {"tested_on": "barnyardgrass", "experiment": "Test B flooded paddy test", "assay_type": "in vivo, Echinochloa crus-galli", "conditions": "1000 g ai/ha, scale 0 to 100 (0 no effect, 100 complete control)", "summary_of_the_method": "(§4)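 Plants grow to 1- to 4-leaf stage (2–18 cm) for postemergence spraying, or to 2-leaf stage for the paddy test. Formulated compound is applied. Greenhouse holding lasts 13–15 days. Response is scored visually relative to controls, 0 no effect to 100 complete control; a dash means no result.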"}, "[6]": {"tested_on": "cocklebur", "experiment": "Test B pre-/postemergence herbicide test", "assay_type": "in vivo, Xanthium strumarium", "conditions": "for Cocklebur plant response rating: postemergence", "summary_of_the_method": "as §2"}, "[7]": {"tested_on": "giant foxtail", "experiment": "Test B pre-/postemergence herbicide test", "assay_type": "in vivo, Setaria faberi", "conditions": "for Foxtail, Giant plant response rating: postemergence", "summary_of_the_method": "as §3"}, "[8]": {"tested_on": "blackgrass", "experiment": "Test B postemergence herbicide test", "assay_type": "in vivo, Alopecurus myosuroides", "conditions": "postemergence", "summary_of_the_method": "as §4"}, "[9]": {"tested_on": "morningglory", "experiment": "Test B pre-/postemergence herbicide test", "assay_type": "in vivo, Ipomoea coccinea", "conditions": "for Morningglory plant response rating: scale 0 (no effect) to 100 (complete control)", "summary_of_the_method": "as §2"}, "[10]": {"tested_on": "lambsquarters", "experiment": "Test B pre-/postemergence herbicide test", "assay_type": "in vivo, Chenopodium album", "conditions": "for Lambsquarters plant response rating: scale 0 (no effect) to 100 (complete control)", "summary_of_the_method": "as §3"}, "[11]": {"tested_on": "Surinam grass", "experiment": "Test B pre-/postemergence herbicide test", "assay_type": "in vivo, Urochloa decumbens", "conditions": "for Surinam Grass plant response rating: scale 0 (no effect) to 100 (complete control)", "summary_of_the_method": "as §3"}, "[12]": {"tested_on": "barnyardgrass", "experiment": "Test C flooded paddy test", "assay_type": "in vivo, Echinochloa crus-galli", "summary_of_the_method": "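After a postemergence application at 1 to 4 leaves (plants 2–18 cm high), or at 2 leaves for barnyardgrass in flooded paddy, plants stayed in the greenhouse for 12 to 14 days. Damage was then judged visually relative to control plants, with 100 indicating complete control.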"}, "[13]": {"tested_on": "small flower umbrella sedge", "experiment": "Test B flooded paddy test", "assay_type": "in vivo, Cyperus difformis", "conditions": "1000 g ai/ha, scale 0 to 100 (0 no effect, 100 complete control)", "summary_of_the_method": "as §4"}, "[14]": {"tested_on": "pigweed", "experiment": "Test B pre-/postemergence herbicide test", "assay_type": "in vivo, Amaranthus retroflexus", "conditions": "for Pigweed plant response rating: scale 0 (no effect) to 100 (complete control)", "summary_of_the_method": "as §3"}, "[15]": {"tested_on": "large crabgrass", "experiment": "Test B pre-/postemergence herbicide test", "assay_type": "in vivo, Digitaria sanguinalis", "conditions": "for Crabgrass, Large plant response rating: postemergence", "summary_of_the_method": "as §3"}, "[16]": {"tested_on": "velvetleaf", "experiment": "Test B pre-/postemergence herbicide test", "assay_type": "in vivo, Abutilon theophrasti", "conditions": "for Velvetleaf plant response rating: scale 0 (no effect) to 100 (complete control)", "summary_of_the_method": "as §3"}, "[17]": {"tested_on": "ducksalad", "experiment": "Test B flooded paddy test", "assay_type": "in vivo, Heteranthera limosa", "conditions": "1000 g ai/ha, scale 0 to 100 (0 no effect, 100 complete control)", "summary_of_the_method": "as §4"}, "[18]": {"tested_on": "smallflower umbrella sedge", "experiment": "Test C flooded paddy test", "assay_type": "in vivo, Cyperus difformis"}, "[19]": {"tested_on": "ducksalad", "experiment": "Test C flooded paddy test", "assay_type": "in vivo, Heteranthera limosa"}, "[20]": {"tested_on": "rice", "experiment": "Test B flooded paddy test", "assay_type": "in vivo, Oryza sativa", "conditions": "1000 g ai/ha, scale 0 to 100 (0 no effect, 100 complete control)", "summary_of_the_method": "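Each value is a visual 0–100 response rating taken against controls 13 to 15 days after treatment in the greenhouse. Plants received formulated chemical postemergence at the 1- to 4-leaf stage or, in flooded paddy, at the 2-leaf stage.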"}, "[21]": {"tested_on": "wheat", "experiment": "Test B postemergence herbicide test", "assay_type": "in vivo, Triticum aestivum", "set-up": "key to Wheat plant response rating: 0 = no effect, 100 = complete control", "summary_of_the_method": "as §1"}, "[22]": {"conditions": "125 g ai/ha, visual rating, postemergence"}, "[23]": {"conditions": "125 g ai/ha, scale 0 to 100 (0 no effect, 100 complete control)"}, "[24]": {"conditions": "250 g ai/ha, scale of 0 to 100, 0 is no effect, 100 is complete control"}, "[25]": {"conditions": "500 g ai/ha, visual rating after 12 to 14 days, scale 0 to 100 (0 no effect, 100 complete control)"}, "[26]": {"conditions": "125 g ai/ha, 0 is no effect, 100 is complete control, preemergence"}, "[27]": {"conditions": "125 g ai/ha, visual rating, scale 0 (no effect) to 100 (complete control)"}, "[28]": {"conditions": "500 g ai/ha, scale 0 to 100, 0 is no effect, 100 is complete control"}}, "data": [{"compound": "CCc1nn(C(C)(C)C)nc1C(=O)Nc1cc(C(=O)N(C)CC)ccc1F", "note": "[Compound 388]", "values": [{"measurement": "Oat, Wild plant response rating", "setting": "[1]; [22]", "result": 0}, {"measurement": "Oat, Wild plant response rating", "setting": "[1]; Postemergence, 500 g ai/ha", "result": 10}, {"measurement": "Rice plant response rating", "setting": "[2]; 62 g ai/ha, scale 0 to 100", "result": 15}, {"measurement": "Rice plant response rating", "setting": "[2]; [23]", "result": 55}, {"measurement": "Rice plant response rating", "setting": "[2]; [24]", "result": 65}, {"measurement": "Plant response rating, Rice", "setting": "[2]; [25]", "result": 70}, {"measurement": "Plant response rating (0 to 100 scale), Barnyardgrass", "setting": "[3]; [26]", "result": 50}, {"measurement": "Barnyardgrass plant response rating", "setting": "[3]; [27]", "result": 0}, {"measurement": "Barnyardgrass plant response rating", "setting": "[3]; [28]", "result": 10}, {"measurement": "Plant response rating (0 to 100 scale), Corn", "setting": "[4]; [26]", "result": 30}, {"measurement": "Corn plant response rating", "setting": "[4]; [27]", "result": 10}, {"measurement": "Corn plant response rating", "setting": "[4]; [28]", "result": 20}, {"measurement": "Barnyardgrass plant response rating", "setting": "[5]", "result": 70}, {"measurement": "Plant response rating (0 to 100 scale), Cocklebur", "setting": "[6]; [26]", "result": 0}, {"measurement": "Cocklebur plant response rating", "setting": "[6]; [27]", "result": 10}, {"measurement": "Cocklebur plant response rating", "setting": "[6]; [28]", "result": 20}, {"measurement": "Plant response rating (0 to 100 scale), Foxtail, Giant", "setting": "[7]; [26]", "result": 20}, {"measurement": "Foxtail, Giant plant response rating", "setting": "[7]; [27]", "result": 10}, {"measurement": "Foxtail, Giant plant response rating", "setting": "[7]; [28]", "result": 30}, {"measurement": "Blackgrass plant response rating", "setting": "[8]; [27]", "result": 0}, {"measurement": "Blackgrass plant response rating", "setting": "[8]; [28]", "result": 20}, {"measurement": "Plant response rating (0 to 100 scale), Morningglory", "setting": "[9]; [26]", "result": 0}, {"measurement": "Morningglory plant response rating", "setting": "[9]; [22]", "result": 10}, {"measurement": "Morningglory plant response rating", "setting": "[9]; Postemergence, 500 g ai/ha", "result": 50}, {"measurement": "Plant response rating (0 to 100 scale), Lambsquarters", "setting": "[10]; [26]", "result": 90}, {"measurement": "Lambsquarters plant response rating", "setting": "[10]; [22]", "result": 60}, {"measurement": "Lambsquarters plant response rating", "setting": "[10]; Postemergence, 500 g ai/ha", "result": 70}, {"measurement": "Plant response rating (0 to 100 scale), Surinam Grass", "setting": "[11]; [26]", "result": 20}, {"measurement": "Surinam Grass plant response rating", "setting": "[11]; [22]", "result": 10}, {"measurement": "Surinam Grass plant response rating", "setting": "[11]; Postemergence, 500 g ai/ha", "result": 20}, {"measurement": "Barnyardgrass plant response rating", "setting": "[12]; 62 g ai/ha, scale 0 to 100 (0 no effect, 100 complete control)", "result": 0}, {"measurement": "Barnyardgrass plant response rating", "setting": "[12]; [23]", "result": 10}, {"measurement": "Barnyardgrass plant response rating", "setting": "[12]; [24]", "result": 35}, {"measurement": "Plant response rating, Barnyardgrass", "setting": "[12]; [25]", "result": 65}, {"measurement": "Sedge, Umbrella plant response rating", "setting": "[13]", "result": 70}, {"measurement": "Plant response rating (0 to 100 scale), Pigweed", "setting": "[14]; [26]", "result": 80}, {"measurement": "Pigweed plant response rating", "setting": "[14]; [22]", "result": 40}, {"measurement": "Pigweed plant response rating", "setting": "[14]; Postemergence, 500 g ai/ha", "result": 50}, {"measurement": "Plant response rating (0 to 100 scale), Crabgrass, Large", "setting": "[15]; [26]", "result": 80}, {"measurement": "Crabgrass, Large plant response rating", "setting": "[15]; [27]", "result": 20}, {"measurement": "Crabgrass, Large plant response rating", "setting": "[15]; [28]", "result": 20}, {"measurement": "Plant response rating (0 to 100 scale), Velvetleaf", "setting": "[16]; [26]", "result": 10}, {"measurement": "Velvetleaf plant response rating", "setting": "[16]; [22]", "result": 20}, {"measurement": "Velvetleaf plant response rating", "setting": "[16]; Postemergence, 500 g ai/ha", "result": 40}, {"measurement": "Ducksalad plant response rating", "setting": "[17]", "result": 80}, {"measurement": "Sedge, Umbrella plant response rating", "setting": "[18]; 62 g ai/ha, scale 0 to 100", "result": 65}, {"measurement": "Sedge, Umbrella plant response rating", "setting": "[18]; [23]", "result": 70}, {"measurement": "Sedge, Umbrella plant response rating", "setting": "[18]; [24]", "result": 75}, {"measurement": "Plant response rating, Sedge, Umbrella", "setting": "[18]; [25]", "result": 80}, {"measurement": "Ducksalad plant response rating", "setting": "[19]; 62 g ai/ha, scale 0 to 100", "result": 0}, {"measurement": "Ducksalad plant response rating", "setting": "[19]; [23]", "result": 0}, {"measurement": "Ducksalad plant response rating", "setting": "[19]; [24]", "result": 45}, {"measurement": "Plant response rating, Ducksalad", "setting": "[19]; [25]", "result": 80}, {"measurement": "Rice plant response rating", "setting": "[20]", "result": 70}, {"measurement": "Wheat plant response rating", "setting": "[21]; 125 g ai/ha, visual rating, scale 0 (no effect) to 100 (complete control), postemergence", "result": 0}, {"measurement": "Wheat plant response rating", "setting": "[21]; 500 g ai/ha, scale 0 to 100, 0 no effect, 100 complete control, preemergence", "result": 90}, {"measurement": "Wheat plant response rating", "setting": "[21]; Postemergence, 500 g ai/ha, scale 0 (no effect) to 100 (complete control)", "result": 10}]}]}
